Assay results as given in patent publication US20110039762A1, “TARGETED ANTIMICROBIAL MOIETIES” (C3 JIAN, INC., priority 2009, published 2011).
Entries after “also recorded” stand apart in the source; their conditions may differ. Ends that are not written are not given here.

Assays:
S. mutans = experiment: Kill or inhibit growth/proliferation; morphology, biofilm and growth disruption (Tables 5, 6); assay type: cell-based, Streptococcus mutans; parameters: key: A: Peptide aggregates; B: Less hyphal formation; Clumps; Diffuse clumps and small polyps; F: Diffuse growth; H: Thin; I: Growth inhibition; Microcolony formation; Rippled; Small polyps; Thick; W: Halo formation on top, microlonies on bottom; further: test concentration or dose not given here
[1] = tested on: microorganisms (e.g., bacteria, yeasts, fungi); experiment: Targeting peptide binding to target microorganisms (Table 3); conditions: preferably 1x PBS; for Target(s) (microorganisms bound by the targeting peptide): peptide binding in aqueous buffers varied by peptide solubility
microorganisms = experiment: Peptides having multiple activities (targeting/binding, antimicrobial, growth or phenotype altering)
From the text: In certain embodiments, peptides described herein can have multiple activities. Thus for example, a peptide can have both binding/targeting activity and antimicrobial activity. Such peptides can be used, e.g., in a chimeric construct, for any or all of these properties. Thus, for example, a peptide designated “B” in Table 8 can be used as a targeting peptide. If it is also designated G or M it can also be used for antimicrobial activity.

B. subtilis = experiment: Kill or inhibit growth/proliferation; morphology, biofilm and growth disruption (Tables 5, 6); assay type: cell-based, Bacillus subtilis; parameters: key: A: Peptide aggregates; B: Less hyphal formation; Clumps; Diffuse clumps and small polyps; F: Diffuse growth; H: Thin; I: Growth inhibition; Microcolony formation; Rippled; Small polyps; Thick; W: Halo formation on top, microlonies on bottom; further: test concentration or dose not given here
M. luteus = experiment: as above; assay type: cell-based, Micrococcus luteus; parameters: key: A: Peptide aggregates; B: Less hyphal formation; Clumps; Diffuse clumps and small polyps; F: Diffuse growth; H: Thin; I: Growth inhibition; Microcolony formation; Rippled; Small polyps; Thick; W: Halo formation on top, microlonies on bottom; further: test concentration or dose not given here
MRSA = experiment: as above; assay type: cell-based, Methicillin-resistant Staphylococcus aureus; parameters: key: A: Peptide aggregates; B: Less hyphal formation; Clumps; Diffuse clumps and small polyps; F: Diffuse growth; H: Thin; I: Growth inhibition; Microcolony formation; Rippled; Small polyps; Thick; W: Halo formation on top, microlonies on bottom
S. epidermidis = experiment: as above; assay type: cell-based, Staphylococcus epidermidis; parameters: key: A: Peptide aggregates; B: Less hyphal formation; Clumps; Diffuse clumps and small polyps; F: Diffuse growth; H: Thin; I: Growth inhibition; Microcolony formation; Rippled; Small polyps; Thick; W: Halo formation on top, microlonies on bottom
S. pneumoniae = experiment: as above; assay type: cell-based, Streptococcus pneumoniae; parameters: key: A: Peptide aggregates; B: Less hyphal formation; Clumps; Diffuse clumps and small polyps; F: Diffuse growth; H: Thin; I: Growth inhibition; Microcolony formation; Rippled; Small polyps; Thick; W: Halo formation on top, microlonies on bottom
C. jejuni = experiment: as above; assay type: cell-based, Campylobacter jejuni; parameters: key: A: Peptide aggregates; B: Less hyphal formation; Clumps; Diffuse clumps and small polyps; F: Diffuse growth; H: Thin; I: Growth inhibition; Microcolony formation; Rippled; Small polyps; Thick; W: Halo formation on top, microlonies on bottom; further: test concentration or dose not given here
C. albicans = experiment: as above; assay type: cell-based, Candida albicans; parameters: key: A: Peptide aggregates; B: Less hyphal formation; Clumps; Diffuse clumps and small polyps; F: Diffuse growth; H: Thin; I: Growth inhibition; Microcolony formation; Rippled; Small polyps; Thick; W: Halo formation on top, microlonies on bottom
C. jeikeium = experiment: as above; assay type: cell-based, Corynebacterium jeikeium; parameters: key: A: Peptide aggregates; B: Less hyphal formation; Clumps; Diffuse clumps and small polyps; F: Diffuse growth; H: Thin; I: Growth inhibition; Microcolony formation; Rippled; Small polyps; Thick; W: Halo formation on top, microlonies on bottom; further: test concentration or dose not given here
E. faecalis = experiment: as above; assay type: cell-based, Enterococcus faecalis; parameters: key: A: Peptide aggregates; B: Less hyphal formation; Clumps; Diffuse clumps and small polyps; F: Diffuse growth; H: Thin; I: Growth inhibition; Microcolony formation; Rippled; Small polyps; Thick; W: Halo formation on top, microlonies on bottom; further: test concentration or dose not given here
E. coli = experiment: as above; assay type: cell-based, Escherichia coli; parameters: key: A: Peptide aggregates; B: Less hyphal formation; Clumps; Diffuse clumps and small polyps; F: Diffuse growth; H: Thin; I: Growth inhibition; Microcolony formation; Rippled; Small polyps; Thick; W: Halo formation on top, microlonies on bottom
[2] = microorganism(s) the targeting peptide binds, peptide binding conducted in aqueous buffers varied by peptide solubility
Wherever Organism, effect (morphology, biofilm and growth disruption) is given: test concentration or dose not given here.
Wherever Organism, effect is given: test concentration or dose not given here.

Substance | Target(s) (microorganisms bound by the targeting peptide) [1] | Activities (microorganisms) | Organism, effect (B. subtilis) | Organism, effect (MRSA) | Organism, effect (S. epidermidis) | Organism, effect (S. pneumoniae) | Organism, effect (C. jejuni) | Organism, effect (C. albicans) | Organism, effect (E. faecalis) | Organism, effect (E. coli) | other results
GNVHPESDFHNLIQFIKTFLYFTIFFKYFL [PF-C290] | A. naeslundii; also recorded: F. nucleatum; also recorded: P. gingivalis; also recorded: S. mutans; also recorded: T. denticola | G B | – | – | – | – | – | – | – | – | Organism, effect (morphology, biofilm and growth disruption) (S. mutans): S. mutans (F)
HCVIGNVVDIANLLKRRAVYRDIADVIKMR [PF-071] | – | G B | B. subtilis (D) | MRSA (C) | S. epidermidis (R) | S. pneumoniae (A) | C. jejuni (A) | C. albicans (B) | – | – | Organism, effect (M. luteus): M. luteus (R); Target(s) ([1]; microorganism the targeting peptide binds, binding in aqueous buffers varied by peptide solubility): S. epidermidis and E. coli and P. aeruginosa and C. albicans and MRSA and S. pneumoniae and E. faecalis
PF-057: peptide having multiple activities (chain 1 TMIVISIPRFEEYMKARHKKWM; chain 2 TMIVISIPRFEEYMKARHKKWM; Peptide with targeting and/or antimicrobial activity) | – | G B | – | MRSA (M) | S. epidermidis (D) | S. pneumoniae (R) | C. jejuni (D) | C. albicans (A) | E. faecalis (A) | E. coli (M) | Organism, effect (C. jeikeium): C. jeikeium (A); Organism, effect (M. luteus): M. luteus (C)
PF-175: peptide having multiple activities (RRRPAGQRPEKASQAMIAA; Peptide with targeting and/or antimicrobial activity) | – | G B | B. subtilis (D) | – | – | S. pneumoniae (A) | C. jejuni (M) | C. albicans (B) | – | – | Organism, effect (M. luteus): M. luteus (S); Target(s) ([1]; microorganism(s) the targeting peptide binds, binding in aqueous buffers depending on peptide solubility): S. epidermidis; also recorded: E. faecalis
PF-426: peptide having multiple activities (MLQKYTQMISVTKCIITKNKKTQENVDAYN; Peptide with targeting and/or antimicrobial activity) | – | G B | – | MRSA (D) | S. epidermidis (D) | S. pneumoniae (D) | C. jejuni (D) | C. albicans (A) | E. faecalis (D) | E. coli (C) | Target(s) [1, 2]: S. epidermidis and E. coli and P. aeruginosa and C. albicans and MRSA and S. pneumoniae and E. faecalis and C. jeikeium
PF-526: peptide having multiple activities (chain 1 VLLLFIFQPFQKQLL-NH2; chain 2 VLLLFIFQPFQKQLL-NH2) | – | G B | – | MRSA (C) | S. epidermidis (C) | S. pneumoniae (R) | – | C. albicans (C) | – | E. coli (R) | –
PF-528: peptide having multiple activities (chain 1 LVDVVVLIRRHLPKSCS-NH2; chain 2 LVDVVVLIRRHLPKSCS-NH2; cysteine pairing not given here) | – | G B | – | MRSA (H) | S. epidermidis (H) | S. pneumoniae (R) | – | C. albicans (C) | – | E. coli (H) | Target(s) [1, 2]: S. epidermidis and P. aeruginosa and C. albicans and MRSA and S. pneumoniae and E. faecalis
PF-627: peptide having multiple activities (INDLLSYFTLHEK; Peptide with targeting and/or antimicrobial activity) | S. epidermidis and P. aeruginosa and MRSA and S. pneumoniae and E. faecalis and C. jeikeium | G B | – | MRSA (R) | S. epidermidis (H) | S. pneumoniae (I) | – | C. albicans (B) | E. faecalis (H) | – | –
PF-632: peptide having multiple activities (chain 1 TTIQGVASLEKHGFRYTIIYPTRI; chain 2 TTIQGVASLEKHGFRYTIIYPTRI; Peptide with targeting and/or antimicrobial activity) | S. epidermidis and P. aeruginosa and C. albicans and MRSA and S. pneumoniae and E. faecalis and C. jeikeium | G B | B. subtilis (H) | MRSA (D) | S. epidermidis (D) | S. pneumoniae (M) | – | C. albicans (B) | E. faecalis (D) | – | Organism, effect (C. jeikeium): C. jeikeium (D)
PF-636: peptide having multiple activities (chain 1 LVRLA; chain 2 LVRLA; Peptide with targeting and/or antimicrobial activity) | S. epidermidis and C. albicans and MRSA and S. pneumoniae and E. faecalis | G B | B. subtilis (H) | – | – | S. pneumoniae (H) | – | C. albicans (B) | E. faecalis (H) | – | –
PF-639: peptide having multiple activities (chain 1 QATQIKSWIDRLLVSED; chain 2 QATQIKSWIDRLLVSED; Peptide with targeting and/or antimicrobial activity) | S. pneumoniae; also recorded: C. jeikeium | G B | – | MRSA (R) | – | S. pneumoniae (I) | – | C. albicans (B) | E. faecalis (H) | – | –
PF-668 (chain 1 TNAESMALAFRGRVHMSVNIAGLT; chain 2 TNAESMALAFRGRVHMSVNIAGLT; Peptide with targeting and/or antimicrobial activity) | Mycobacteria spp | – | – | – | – | – | – | – | – | – | Organism, effect (morphology, biofilm and growth disruption) (B. subtilis): B. subtilis (A); Organism, effect (morphology, biofilm and growth disruption) (C. jeikeium): C. jeikeium (D); Organism, effect (morphology, biofilm and growth disruption) (E. faecalis): E. faecalis (D); Organism, effect (morphology, biofilm and growth disruption) (MRSA): MRSA (R); Organism, effect (morphology, biofilm and growth disruption) (S. epidermidis): S. epidermidis (M); Organism, effect (morphology, biofilm and growth disruption) (S. pneumoniae): S. pneumoniae (M); Organism, effect (morphology, biofilm and growth disruption) (C. albicans): C. albicans (A)
PF-686: peptide having multiple activities (chain 1 LAVLMGYIGYRGWSGKRHINRQ; chain 2 LAVLMGYIGYRGWSGKRHINRQ; Peptide with targeting and/or antimicrobial activity) | M. smegmatis | G B | – | – | – | – | – | – | – | – | Organism, effect (morphology, biofilm and growth disruption) (B. subtilis): B. subtilis (I); Organism, effect (morphology, biofilm and growth disruption) (E. faecalis): E. faecalis (R); Organism, effect (morphology, biofilm and growth disruption) (MRSA): MRSA (M); Organism, effect (morphology, biofilm and growth disruption) (S. epidermidis): S. epidermidis (H); Organism, effect (morphology, biofilm and growth disruption) (S. pneumoniae): S. pneumoniae (A); Organism, effect (morphology, biofilm and growth disruption) (C. albicans): C. albicans (B)
